Read-outs that look alike come from different tables or passages of the source.
Legend:
ddY mice = experiment: Acute toxicity; assay type: in vivo; settings: mouse, oral, 600 mg/kg, observed for 2 weeks
Excerpt: EXPERIMENT 9: ACUTE TOXICITY

[1] = test system: paw edema induced by carageenin; experiment: Inhibitory activity on paw edema induced by carageenin; assay type: in vivo, Wistar rats; settings: rat, oral, 10 mg/kg, 3 hours after carageenin
Experimental: EXPERIMENT 4: INHIBITORY ACTIVITY ON PAW EDEMA INDUCED BY CARAGEENIN
Wistar rats (body weight: 110-130 g) starved overnight were orally administered with a test drug suspended in 0.5% CMC-Na, and after one hour, 0.1 ml of 1% carageenin solution (picnin-A, Zushi Kagaku) was subcutaneously injected into the right hind leg paw of each rat. Three hours later, the volume of the paw was determined by means of a plethysmometer (Model 7150, Ugo Basile Co.,Ltd.) and the rate of edema was evaluated in comparison with the volume of the paw before the carageenin injection as 100%. Inhibitory rate of each drug-treated group against edema formation was calculated in comparison with the solvent-treated control.

[2] = test system: auricle edema induced by oxazolone; experiment: Effect on auricle edema induced by oxazolone (delayed allergy); assay type: in vivo, ICR mice; settings: mouse, oral, 10 mg/kg × 2 (30 minutes before, 6 hours after), 24 hours
Experimental: EXPERIMENT 6: EFFECT ON AURICLE EDEMA INDUCED BY OXAZOLONE (DELAYED ALLERGY)
[…]. The mice were sensitized by the application of 0.1 ml of 0.5% oxazolone in ethanol to shaven abdominal skin. Five days later, inflammation was induced by applying 10 μl of 0.5% oxazolone in acetone to front and back surfaces Of the right auricle. After 24 hours, the thicknesses of the left and right auricles were measured by a dial gauge, and the rate of edema of the right auricle was calculated in comparison with the left auricle (normal). A test drug was suspended in 0.5% CMC--Na and orally administered twice to each mouse , i.e., 30 minutes before and 6 hours after the inflammation-inducing treatment. Inhibitory rate of each drug-treated group against edema was calculated in comparison with the solvent-treated control.

5-lipoxygenase = target: T1, 5-lipoxygenase (Cavia porcellus, UniProt A0A286X958); experiment: Inhibitory activity on 5-lipoxygenase; assay type: biochemical, guinea pigs; settings: 5-HETE generation, 20 μM 14C-arachidonic acid, pH 7.4, 37° C., 10 minutes
T1 construct: crude enzyme fraction prepared from peritoneal exudated cells of guinea pigs; endogenous in cells; host or cells: guinea pig peritoneal exudate cells (induced by intraperitoneal casein), crude enzyme fraction
T1 sequence (A0A286X958 1-674): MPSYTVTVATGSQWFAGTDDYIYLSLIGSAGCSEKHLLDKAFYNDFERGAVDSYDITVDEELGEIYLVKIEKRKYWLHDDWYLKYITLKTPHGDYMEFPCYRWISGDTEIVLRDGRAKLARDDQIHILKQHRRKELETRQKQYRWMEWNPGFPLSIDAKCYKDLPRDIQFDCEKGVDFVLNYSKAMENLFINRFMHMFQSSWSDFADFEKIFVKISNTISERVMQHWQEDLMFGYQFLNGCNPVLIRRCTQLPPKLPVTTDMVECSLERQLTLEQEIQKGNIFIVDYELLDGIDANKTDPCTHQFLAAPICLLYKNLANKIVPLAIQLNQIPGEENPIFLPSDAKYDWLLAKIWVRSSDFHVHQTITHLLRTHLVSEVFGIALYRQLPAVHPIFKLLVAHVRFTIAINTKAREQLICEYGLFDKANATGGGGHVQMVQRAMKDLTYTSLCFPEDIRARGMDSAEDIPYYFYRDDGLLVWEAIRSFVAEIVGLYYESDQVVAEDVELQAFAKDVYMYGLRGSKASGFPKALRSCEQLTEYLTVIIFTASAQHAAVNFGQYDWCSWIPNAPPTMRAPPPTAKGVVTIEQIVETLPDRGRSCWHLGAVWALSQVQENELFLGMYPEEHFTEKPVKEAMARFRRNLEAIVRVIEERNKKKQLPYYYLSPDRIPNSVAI
Experimental: EXPERIMENT 2: INHIBITORY ACTIVITY ON 5-LIPOXYGENASE
5-Lipoxygenase activity was determined according to the method described by Ochi et al., J. Biol. Chem.,258, p. 5754, 1983 using a crude enzyme fraction prepared from peritoneal exudated cells of guinea pigs which were induced by intraperitoneal injection of 2% case in solution. A solution of a test drug was mixed with a reaction solution (2mM ATP, 1 mM glutathione,and the enzyme fraction in 50 mM phosphate buffer, PH 7.4) and the mixture was pre-incubated at 37° C. for 5 minutes. Calcium chloride (1 mM) and 20 μM^14 C-arachidonic acid were added to the mixture, and then the mixture was subjected to a reaction at 37° C. for 10 minutes. After the completion of the reaction, the product was immediately extracted, dissolved in chloroform/methanol (2:1), and developed by thin-layer chromatography. Radioactivity of the 5-hydroxyeicosatetraenoic acid (5-HETE) fraction was measured using a liquid scintillation counter. Inhibitory rate of each drug-treated group against 5-HETE generation was obtained in comparison with the solvent-treated control, and IC50 was calculated according to the probit method.

[3] = test system: platelet aggregation (platelet rich plasma); experiment: Inhibitory activity on platelet aggregation; assay type: cell-based, Japanese native white domestic rabbits; settings: Oryctolagus cuniculus, rabbit PRP, 37° C.
Experimental: EXPERIMENT 8: INHIBITORY ACTIVITY ON PLATELET AGGREGATION
Blood of Japanese native white domestic rabbits was taken into a plastic centrifugal tube added with 1/10 in volume of 3.8% sodium citrate solution, and then, platelet rich plasma (PRP) containing 5 to 6×10^8 /ml platelets was obtained by centrifugation for 10 minutes. under 120×G. To 450 μl of the PRP, 25 μl of a solution containing the test drug (Compound 109) dissolved at a desired concentration was added.

CCc1ccc(-c2cc(-c3ccc(OC)cc3)c(-c3ccc(OC)cc3)o2)n1CC(=O)O [Compound 109, 2,3-di-(4-methoxyphenyl)-5-(1-carboxymethyl-5-ethyl-2-pyrrolyl)furan]
Dead Mice/Total Mice (ddY mice): 0/5
Inhibition on Edema (%) [1]: 49.5%
Inhibition on Edema (%) [2]: 46.8%
IC50 (5-lipoxygenase): 0.85 µM
IC50 ([3]; arachidonic acid (250 μM), read-out: IC50 against platelet aggregation induced by arachidonic acid): 1.5 µM
IC50 ([3]; collagen (5 μg/ml), read-out: IC50 against platelet aggregation induced by collagen): 13.3 µM

Source: patent US5321041A, “Diphenylpyrrolylfuran derivatives” (Nihon Iyakuhin Kogyo Co., Ltd., priority 1992, dated 1994)
